Assay results from patent publication US20260022100A1, “NAV1.8 INHIBITOR” (Wuhan Humanwell Innovative Drug Research and Development …, priority 2022, published 2026).

Legend:
[1] = target: Nav1.8 ion channel (Homo sapiens (Human), UniProt Q9Y5Y9); assay: Inhibitory activity on Nav1.8 ion channel, whole-cell patch-clamp on HEK293/Nav1.8; format: cell-based; conditions: HEK293/Nav1.8, whole-cell patch clamp, holding -80 mV, 1 μM TTX
Protocol: Reagents were purchased from Sigma (St. Louis, MO) except NaOH and KOH for acid-base titration. The final concentrations of the test compounds were all prepared on the day of the test and then dissolved in an extracellular fluid. The extracellular fluid (mM) was NaCl, 137; KCl, 4; CaCl2), 1.8; MgCl2, 1; HEPES, 10; glucose 10; and pH 7.4 (NaOH titration). All test and control compound solutions contained 1 μM TTX. The intracellular fluid (mM) was: aspartic acid, 140; magnesium chloride, 2; ethylene glycol tetraacetic acid (EGTA), 11; and N-2-hydroxyethylpiperazine-N′-2-ethanesulfonic acid (HEPES), 10. The pH was adjusted to 7.4 with cesium hydroxide.
The test compounds were dissolved in dimethylsulfoxide (DMSO) at a concentration of 9 mM. On the day of the test, the compounds were then dissolved in the extracellular fluid and prepared into the required concentration.
The cells were transferred to a perfusion chamber and perfusion was carried out using the extracellular fluid. The intracellular fluid was thawed on the day of the experiment. The electrodes were produced by pulling with PC-10 (Narishige, Japan). Whole-cell patch-clamp recording was carried out. Noise was filtered at one fifth of the sampling frequency. The intracellular fluid with ¼ length of the electrode tube was added into the electrode, and the electrode was installed on a probe. The required Protocol was set, the interface was adjusted to Membrane test, and Stage was adjusted to Bath. A positive pressure was applied in the electrode. The tip of the electrode was contacted with the cell. The three-way valve of the air extractor was adjusted to a three-way state. A negative pressure was then applied to the electrode, so that the electrode and the cell formed a high-resistance seal. Stage was adjusted to Patch, and leak was controlled within −200 pA. A negative pressure was successively applied, so that cell membranes were broken, and a current path was formed. Perfusion was carried out by opening the suction filtration device and the extracellular fluid valve. The cell current was observed, and administration was started when the cell current was stable (at least 3 sweep current curves were overlapped). Administration was performed from low concentration to high concentration. The administration time of each concentration was not less than 2 min, and when the current was stable, the concentration was changed for administration.
For administration of the test samples, perfusion was carried out using a perfusion system utilizing the self gravity. […] During the period, the CV % of all peak current amplitudes should be less than 10% to exclude up and down fluctuations of the initial current. The average of the peak current amplitudes recorded for the last 10 times during the initial recording served as the current peak of the negative control. After the initial current was stable, the test samples were dosed starting from a low concentration until the 10 recorded peak currents were again stable or the peak currents were “constant” after and before administration after continuous administration for 5 min. We defined the following two cases as “stable” or “constant”: 1) if the absolute average of the peak current for 10 consecutive scans exceeded 200 pA and the CV value was less than 10%, 2) or the average of the peak current for 10 consecutive scans was between 200 pA and 50 pA and the CV value was less than 30%. The next detection of higher concentration was then given.
The average of the peak current of the last 10 scans of each concentration was taken as the peak current for that concentration for data analysis. If the stable state was not reached within 5 min, the peak current average of the last 10 scans at that time was used for data analysis as the peak current for that concentration. At the same time, the cells were discarded and no longer used for detection of higher concentration. At least two cells were tested per concentration of the compounds. […]

[2] = Pharmacokinetic assay in mice; format: in vivo; conditions: male, ICR, mouse, plasma, oral intragastric administration, 10 mg/kg
Protocol: Pharmacokinetic assay in mice was performed, wherein the mice used were 3 male ICR mice and fasted overnight. The mice were orally intragastrically dosed with the medicament (10 mg/kg). Blood was collected before administration and at 15 min, 30 min and 1 h, 2 h, 4 h, 6 h, 8 h, and 24 h after administration. Blood samples were centrifuged at 8000 rpm for 6 min at 4° C., and plasma was collected and stored at −20° C. The plasma at each time point was taken, and 3-5 times its amount of an acetonitrile solution containing an internal standard was added for mixing. The mixture was vortexed for 1 min and then centrifuged at 13000 rpm at 4° C. for 10 min. The supernatant was taken, and 3 times its amount of water was added for mixing. A proper amount of the resulting mixture was taken for LC-MS/MS analysis. The major pharmacokinetic parameters were analyzed using a non-compartmental model in the WinNonlin 7.0 software.

[3] = system: spinal nerve-ligated rats; assay: Spinal nerve ligation neuropathic pain model in rats (Von-Frey mechanical pain threshold); format: in vivo, male SD rat; conditions: SNL rats
Description: A male SD rat weighing 180-220 g was placed on an operating table in a prone position after anesthesia. An incision was made along the spinal column near the hip bone of the animal, and the fascia and muscle were separated. The L5 transverse process was carefully snapped off with a tweezer. The L5 nerve was separated with a glass needle, and the L5 nerve was ligated with 5-0 ligature. The muscle and the skin were sutured and disinfected with iodophor. After 14 days of modeling, the animals were divided into different groups, 10 animals each group. Different compounds were separately orally administered intragastrically. Mechanical pain thresholds of the animals were detected with Von-Frey fiber filaments at different time points after administration. The specific administration dose and detection time are detailed in Table 3 below.
The mechanical pain threshold detection method: The pelma of the hind limb to be tested of the test animal was continuously stimulated using the Von-Frey fiber filament to bend the fiber filament, and the foot shrinking reaction of the animal was observed. The tested animals were stimulated one by one according to the sequence of the gram number of the fiber filaments from small to large, and each gram number of the fiber filament was continuously used for stimulation for 5 times. If less than 3 positive reactions were present, the procedure described above was repeated using a larger grade of fiber filament, and if 3 or more positive reactions were present for the first time in the test, the fiber filament was the pain threshold for that animal (3 tests per animal for the average). Fiber filament gram number: 0.6, 1.0, 1.4, 2.0, 4.0, 6.0, 8.0, 10.0, and 15.0; the cut value was 15.0 g.

SMILES | IC50 [1] [nM] | AUC(0-t) [2] [ng·h/mL] | Cmax [2] [ng/mL] | Tmax [2] [h] | half-life [2] [h] | Mechanical pain threshold (Mean ± SD), base value before modeling ([3]; 100 mpk group, baseline before modeling) [g] | Mechanical pain threshold (Mean ± SD), 3 h after administration ([3]; 100 mpk oral intragastric, 3 h) [g] | Mechanical pain threshold (Mean ± SD), 6 h after administration ([3]; 100 mpk oral intragastric, 6 h) [g]
O=C(Nc1cnc[n+]([O-])c1)c1cc(Cl)c(C(F)(F)F)cc1Oc1ccc(OC(F)(F)F)cc1 [Compound I-2, 5-(5-Chloro-2-(4-(trifluoromethoxy)phenoxy)-4-(trifluoromethyl)benzamido)pyrimidine-1-oxide] | 11 | – | – | – | – | – | – | –
O=C(Nc1ccc[n+]([O-])c1)c1c(Oc2ccc(F)c3c2OC(F)(F)O3)cc(C(F)(F)F)c(Cl)c1F [Compound I-11, 3-(3-Chloro-2-fluoro-6-((2,2,7-trifluorobenzo[d][1,3]dioxol-4-yl)oxy)-4-trifluoromethyl-benzamido)pyridine 1-oxide] | 0.64 | 9070 | 2240 | 1 | 2.18 | 13.0 ± 2.8 | 13.6 ± 2.0 | 12.1 ± 2.5
O=C(Nc1ccc[n+]([O-])c1)c1cc(Cl)c(C(F)(F)F)cc1Oc1ccc(SC(F)(F)F)cc1 [Compound I-15] | – | 539000 | 30000 | 8 | 34 | – | – | –
COc1cc(OC(F)(F)F)ccc1Oc1cc(Cl)c(Cl)cc1C(=O)Nc1cnc[n+]([O-])c1 [Compound I-18, 5-(4,5-dichloro-2-(2-methoxy-4-(trifluoromethoxy)phenoxy)benzamido)pyrimidine 1-oxide] | 2.4 | 3340 | 1390 | 0.5 | 1.22 | – | – | –
O=C(Nc1cnc[n+]([O-])c1)c1c(Oc2ccc(OC(F)(F)F)cc2)cc(Cl)c(Cl)c1F [Compound I-19, 5-(3,4-Dichloro-2-fluoro-6-(4-(trifluoromethoxy)phenoxy)benzamido)pyrimidine 1-oxide] | 0.98 | 19200 | 8880 | 0.5 | 2 | – | – | –
O=C(Nc1cnc[n+]([O-])c1)c1c(Oc2ccc(OC(F)(F)F)cc2)ccc(C(F)(F)F)c1F [Compound I-20, 5-(2-fluoro-6-(4-(trifluoromethoxy)phenoxy)-3-(trifluoromethyl)benzamido)pyrimidine 1-oxide] | – | 96200 | 8010 | 4 | 2.87 | – | – | –
[2H]C([2H])([2H])Oc1cc(F)ccc1Oc1cc(Cl)c(Cl)cc1C(=O)Nc1cnc[n+]([O-])c1 [Compound I-21, 5-(4,5-dichloro-2-(4-fluoro-2-(trideuteromethoxy)phenoxy)benzamido)pyrimidine 1-oxide] | – | 2490 | 1400 | 0.5 | 1.32 | – | – | –
O=C(Nc1ccc[n+]([O-])c1)c1cc(Cl)c(Cl)cc1Oc1ccc(F)c2c1OC(F)(F)O2 [Compound I-22, 3-(4,5-Dichloro-2-((2,2,7-trifluorobenzo[d][1,3]dioxol-4-yl)oxy)benzamido)-pyridine 1-oxide] | 8.15 | 12700 | 3090 | 1 | 2.88 | – | – | –
O=C(Nc1ccc[n+]([O-])c1)c1cc(Cl)c(C(F)(F)F)cc1Oc1ccc(F)c2c1OC(F)(F)O2 [Compound I-23, 3-(5-chloro-2-((2,2,7-trifluorobenzo[d][1,3]dioxol-4-yl)oxy)-4-(trifluoromethyl)benzamido)pyridine 1-oxide] | 2.9 | 37900 | 3450 | 1 | 2.53 | – | – | –
[2H]C([2H])([2H])Oc1cc(OC(F)(F)F)ccc1Oc1cc(Cl)c(Cl)cc1C(=O)Nc1cnc[n+]([O-])c1 [Compound I-24, 5-(4,5-dichloro-2-(2-(methoxy-d3)-4-(trifluoromethoxy)phenoxy)benzamido)pyrimidine 1-oxide] | 2.2 | 4560 | 1870 | 0.5 | 1.78 | – | – | –
O=C(Nc1cnc[n+]([O-])c1)c1c(Oc2ccc(OC(F)F)cc2)cc(C(F)(F)F)c(Cl)c1F [Compound I-25, 5-(3-Chloro-6-(4-(difluoromethoxy)phenoxy)-2-fluoro-4-(trifluoromethyl)benzamido)pyrimidine 1-oxide] | 2.9 | – | – | – | – | – | – | –
[2H]C([2H])([2H])Oc1cc(F)c(F)cc1Oc1cc(C(F)(F)F)c(Cl)c(F)c1C(=O)Nc1cnc[n+]([O-])c1 [Compound I-28, 5-(3-chloro-6-(4,5-difluoro-2-(methoxy-d3)phenoxy)-2-fluoro-4-(trifluoromethyl)benzamido)pyrimidine 1-oxide] | 1.3 | – | – | – | – | – | – | –
Cc1cc(F)ccc1Oc1cc(C(F)(F)F)c(Cl)cc1C(=O)Nc1cnc[n+]([O-])c1 [Compound I-31, 5-(5-chloro-2-(4-fluoro-2-methylphenoxy)-4-(trifluoromethyl)benzamido)pyrimidine 1-oxide] | 9.75 | – | – | – | – | – | – | –
O=C(Nc1ccc[n+]([O-])c1)c1c(Oc2ccc(F)c3c2OC(F)(F)O3)cc(Cl)c(Cl)c1F [Compound I-32, 3-(3,4-Dichloro-2-fluoro-6-((2,2,7-trifluorobenzo[d][1,3]dioxol-4-yl)oxy)benzamido)pyridine-1-oxide] | 0.71 | – | – | – | – | – | – | –
Cc1cc(F)ccc1Oc1cc(C(F)(F)F)c(Cl)c(F)c1C(=O)Nc1cnc[n+]([O-])c1 [Compound I-34, 5-(3-chloro-2-fluoro-6-(4-fluoro-2-methylphenoxy)-4-(trifluoromethyl)benzamido)pyrimidine 1-oxide] | 1.4 | – | – | – | – | – | – | –
